# Where a SMILES comes first, the peptide text is derived from it. Bridges are numbered along the chain shown (N, C = ends). Roman numbers before positions name the chains, in order. Triazole bridges read from a SMILES are 1,4-linked. Where no end group is shown, it is not given here. Side-chain parts run from the residue outwards. [ ]: non-standard residue; d: D form. The star is where a group is joined. X2 = CN1C(=C/C=C/C=C/C2=[N+](CCCCCC(=O)*)c3ccc(S(=O)(=O)[O-])cc3C2(C)C)C(C)(C)c2cc(S(=O)(=O)O)ccc21; X1 = CN1C(=CC=CC=CC2=[N+](CCCCCC(=O)*)c3ccc(S(=O)(=O)[O-])cc3C2(C)C)C(C)(C)c2cc(S(=O)(=O)O)ccc21; Lys(N3) = [N-]=[N+]=NCCCC[C@H](N)C(=O)O; Cit = NC(=O)NCCC[C@H](N)C(=O)O; d(hCys) = N[C@H](CCS)C(=O)O; PEG3 = NCCOCCOCCOCCC(=O)O; Pra = C#CC[C@H](N)C(=O)O
# Legend:
# THP-1 cells = experiment: Fluorescence correlation spectroscopy (FCS) in the cytosol; details: THP-1, applied concentration 1000 nM, 72 h; for cytosolic concentration, mean ± SD: FCS at 22 °C
# Experimental: 3 Quantification of Cy5-labeled peptides in the cytosol. (A) RP-HPLC (λex = 640 nm, λem = 670 nm) of cleavage products of Cy5-labeled peptides in the lysate of HEK293_CMKLR1-eYFP cells after incubation with 1 μM peptide for different durations. […] (B) Representative fluorescence correlation spectroscopy (FCS) autocorrelation curves of Cy5-labeled peptides measured in the cytosol of HEK293_CMKLR1-eYFP cells after 72 h of incubation. Measured curves were fitted with a model for hindered 3D diffusion and diffusion time t D and anomalous coefficient α were calculated from the fit. Autocorrelation data represent mean ± SD of up to 10 consecutive 5 s measurements in a single cell. (C) Intracellular concentrations of Cy5-labeled peptides after 72 h incubation calculated from the fitted autocorrelation curves obtained in HEK293_CMKLR1-eYFP, HMEC-1, and THP-1 cells. Each data point corresponds to FCS measurements from the cytosol of a single cell. Median with the interquartile range is shown. Data from three independent experiments. Statistical comparison by log-normal unpaired t test. ***p ≤ 0.001, **p ≤ 0.01, *p ≤ 0.05, ns – not significant. […] (D) Calculated diffusion coefficients from the fitted autocorrelation curves. Median with the interquartile range is shown. […]
# Fluorescence correlation spectroscopy (FCS)
# Cytosolic delivery was quantified by FCS as has been described previously.3–5 Stably transfected HEK293_CMKLR1-eYFP cells were seeded at 30,000 cells per well and HMEC-1 cells at 10,000 cells per well into poly-ᴅ-lysine-coated 8-well microscopy slides (ibidi) in their respective cell culture medium. THP-1 cells were resuspended in fresh cell culture medium at 100,000 cells/mL in 500 µL cell culture medium in uncoated 12-well plates. The next day, dilutions of Cy5-labeled peptides were added to the cells and incubated for 72 h. Cell membranes of HMEC-1 and THP-1 cells were stained with 20 µg/mL Alexa Fluor 488-labeled concanavalin A (Invitrogen) for 20 min to enable identification of the cytosol. Nuclei were counterstained with Hoechst33342, and cells were washed with FluoroBriteTM DMEM (Gibco) + 25 mM HEPES (pH 7.4). After washing, THP-1 cells were transferred to poly-ᴅ-lysine-coated 8-well microscopy slides and allowed to sediment and adhere for 1 h. Confocal imaging and FCS were performed at 22 °C on a TCS SP8 FALCON microscope (Leica) with a Plan-Apochromat 40x/1,10 water immersion objective and HyD single molecule detector (Leica). The 638 nm laser line was used for excitation at 0.5% power and […]
# [1] = molecular target: T1, recombinant human GST-MDM2 (Homo sapiens, UniProt Q00987); experiment: Fluorescence polarization binding of Cy5-labeled peptides to MDM2; details: 20 nM Cy5-labeled peptide, FP buffer pH 7.4, 30 min room temperature; performed twice in technical triplicates
# T1 construct: purchased R&D Systems
# Experimental: (B) Fluorescence polarization measurement of 20 nM Cy5-labeled peptides binding to recombinant human GST-MDM2.
# 20 nM of Cy5-labeled peptides were added to dilutions of human MDM2 (Recombinant Human GST -
# MDM2/HDM2, R&D Systems) in FP buffer (50 mM tris(hydroxymethyl)aminomethane (Tris, Carl Roth),
# 150 mM sodium chloride (Sigma), 1 mM EDTA (Sigma), 0.01% (v/v) Tween20 (Sigma), pH 7.4) and
# incubated for 30 min at room temperature. Fluorescence polarization was then measured in a Tecan
# Spark plate reader (λex = 640 nm, λem = 670 nm). Measurements were performed twice in technical
# triplicates. Data was then fit with Prism 10 (GraphPad) using non-linear regression with the following
# solution to the quadratic binding equation 1 to obtain Kd:
# 𝐹𝑃 = 𝐹𝑃 + (𝐹𝑃 − 𝐹𝑃 ) ∗ 𝑐 + 𝑐 + 𝐾 − 𝑝𝑒𝑝𝑡𝑖𝑑𝑒 𝑀𝐷𝑀2 𝑑 𝑝𝑒𝑝𝑡𝑖𝑑𝑒 𝑀𝐷𝑀2
# [2] = test system: HEK293_CMKLR1-eYFP, HMEC-1, MDA-MB-231 and THP-1 cells; experiment: Quantification of total cellular peptide uptake in cell lysate; format: cell-based; details: 1 µM peptide, 72 h, fluorescence in lysate, all cell lines; performed thrice
# Experimental: page 7: Quantification of total cellular peptide uptake of different cell lines MDA-MB-231 cells and stably transfected HEK293_CMKLR1-eYFP cells were seeded at 165,000 cells per well and HMEC-1 cells at 55,000 cells per well into poly-ᴅ-lysine coated 12-well plates in their respective cell culture medium. […] the cells and incubated for 72 h. Cells were then washed with PBS and detached with trypsin/EDTA. […] Suspended cells were washed thrice with Fluorobrite DMEMTM and collected by centrifugation at 500 g for 5 min after each step. Finally, cells were resuspended in […] Fluorobrite DMEMTM and cell density was determined with an automated cell counter (Cell Drop, DeNovix). Cell suspensions were then lysed by ultrasonic homogenization (U[…], Hielscher) for 2 × 10 s on ice to prevent self-quenching of Cy5 due to high local concentrations in vesicles. […] Quantification of receptor-mediated uptake in CMKLR1-expressing cell lines. (A) Cell-surface enzyme-linked immunosorbent assay (ELISA) for the quantification of CMKLR1 expression of different cell lines. […] For quantification, cells were detached, counted, lysed by ultrasonic homogenization, and fluorescence was measured in the lysate. Total peptide uptake per cell was calculated from a dilution series of Cy5-labeled peptide with known concentration. […]
# T1 sequence (Q00987 whole entry): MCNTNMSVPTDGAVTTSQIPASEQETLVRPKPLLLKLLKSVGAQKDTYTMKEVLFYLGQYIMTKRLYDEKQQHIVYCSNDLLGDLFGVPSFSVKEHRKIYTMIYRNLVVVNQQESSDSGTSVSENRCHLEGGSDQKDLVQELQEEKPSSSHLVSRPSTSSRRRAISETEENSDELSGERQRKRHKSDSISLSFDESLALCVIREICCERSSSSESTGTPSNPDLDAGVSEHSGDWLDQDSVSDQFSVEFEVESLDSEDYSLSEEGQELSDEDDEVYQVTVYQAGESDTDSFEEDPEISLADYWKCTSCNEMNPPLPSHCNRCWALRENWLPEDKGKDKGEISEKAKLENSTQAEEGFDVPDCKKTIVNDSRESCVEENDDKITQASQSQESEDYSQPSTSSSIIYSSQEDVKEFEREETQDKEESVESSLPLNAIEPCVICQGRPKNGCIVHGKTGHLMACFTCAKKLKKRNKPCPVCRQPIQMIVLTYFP
Compound,"cytosolic concentration, median (IQR) (THP-1 cells)","cytosolic concentration, mean ± SD (THP-1 cells)",Kd [1],total peptide uptake per cell [2]
CC(=O)N[C@@H](CCCCn1cc(C[C@H](NC(=O)CCOCCOCCOCCNC(=O)[C@H](CCCNC(N)=O)NC(=O)[C@@H](NC(=O)[C@H](CCC(=O)O)NC(=O)CNC(=O)CNC(=O)[C@@H](CCCNC(=N)N)NC(=O)[C@@H](CC(C)C)NC(=O)[C@@H](CC(C)C)NC(=O)[C@@H](C)NC(=O)[C@@H](CCC(=O)O)NC(=O)[C@@H](Cc2ccccc2)NC(=O)[C@@H](C)NC(=O)[C@@H](CC(C)C)NC(=O)[C@H]2CCCN2C(=O)[C@@H](Cc2c[nH]c3ccccc23)NC(=O)[C@@H](Cc2c[nH]c3ccccc23)NC(=O)[C@@H](CC(=O)O)NC(=O)CCOCCOCCOCCNC(=O)CCCCC[N+]2=C(/C=C/C=C/C=C3N(C)c4ccc(S(=O)(=O)O)cc4C3(C)C)C(C)(C)c3cc(S(=O)(=O)[O-])ccc32)C(C)C)C(N)=O)nn1)C(=O)N[C@@H](Cc1ccc(O)cc1)C(=O)N[C@@H](Cc1ccccc1)C(=O)N1CCC[C@H]1C(=O)N[C@@H]1CCSSC[C@@H](C(=O)O)NC(=O)[C@H](Cc2ccccc2)NC(=O)[C@H](C)NC(=O)[C@H](Cc2ccccc2)NC(=O)[C@H](CCC(N)=O)NC1=O [2Cy] (I: {X2-PEG3}-[dD][dW][dW][dP][dL][dA][dF][dE][dA][dL][dL][dR]GGEV[Cit][PEG3][Pra]-NH2 / II: Ac-[Lys(N3)]YFP[d(hCys)]QFAFC-OH; triazole I:19-II:1; disulfide II:5-II:10),14.0 (7.1–26.6) nM,22.7 ± 25.1 nM,,
I: GSVSHHHHHHGGHHHH[PEG3][dK]([PEG3-X1])[dD][dW][dW][dP][dL][dA][dF][dE][dA][dL][dL][dR]GEV[Cit][PEG3][Pra]-NH2 / II: Ac-[Lys(N3)]YFP[d(hCys)]QFAFC-OH (triazole I:36-II:1; disulfide II:5-II:10) [3Cy],22.6 (12.7–38.5) nM,40.3 ± 77.12 nM,90 nM,uptake slightly higher than that of 2Cy

# — publication PMC12814185, “Receptor-Mediated Shuttling of a D‑Amino Acid Peptide Achieves High Nanomolar Cytosolic Concentrations” (Journal of the American Chemical Society, 2025)
